The test system of test [1] is Mus musculus. The experiment in a line: Inhibition of CCl4-induced ferroptosis in acute liver injury C57BL/6 mouse model assessed as reduction in TNF-alpha level in serum at 10 to 30 mg/kg, ip pretreated with compound for 3 hrs followed by CCl4 induction and measured after 12 to 24 hrs by ELISA analysis. The test is classed as functional, organism-based. The following applies: dose 10-30 mg/kg, time 15-27 hrs.

For test [2], the system named is AML12. The experiment in a line: Protection against CCl4-induced ferroptosis in mouse AML12 cells assessed as reduction in ROS production at 200 to 1000 nM measured for 36 hrs. The test is classed as functional, cell-based. Particulars: dose 200-1000 nM.
For test [3], the system named is AML12. In words: Protection against FINO2-induced ferroptosis in mouse AML12 cells assessed as attenuation of Fe2+ level by fluorescence imaging analysis. The test is classed as functional, cell-based.
For test [4], the system named is AML12. In words: Upregulation of FTL level in mouse AML12 cells incubated for 24 hrs by Western blot analysis. It is filed as functional, cell-based. The following applies: dose <= 10.0 µM.
Test [5] concerns AML12. In words: Protection against iFSP1-induced ferroptosis in mouse AML12 cells assessed as attenuation of Fe2+ level by fluorescence imaging analysis. The test is classed as functional, cell-based.
Test [6] has as its system AML12. The experiment in a line: Protection against iFSP1-induced ferroptosis in mouse AML12 cells assessed as reduction in lipid peroxidation level at 200 nM measured for 48 hrs. It is filed as functional, cell-based.
The subject of test [7] is AML12. In words: Protection against CCl4-induced ferroptosis in mouse AML12 cells assessed as cell viability in presence of Ferrostatin-1. The test is classed as functional, cell-based.
Test [8] concerns AML12. The experiment in a line: Protection against Brequinal-induced ferroptosis in mouse AML12 cells assessed as reduction in lipid peroxidation level at 200 nM measured for 48 hrs. The test is classed as functional, cell-based.
The test system of test [9] is Mus musculus. The experiment in a line: Inhibition of CCl4-induced ferroptosis in acute liver injury C57BL/6 mouse model assessed as reduction in IL-1beta level in serum at 10 to 30 mg/kg, ip pretreated with compound for 3 hrs followed by CCl4 induction and measured after 12 to 24 hrs by ELISA analysis. The following applies: dose 10-30 mg/kg, time 15-27 hrs. It is filed as functional, organism-based. On the technique in general: An ELISA detects its analyte on a solid surface through an enzyme-linked reagent.

The subject of test [10] is AML12. The experiment in a line: Protection against CCl4-induced ferroptosis in mouse AML12 cells assessed as reduction in lipid peroxidation level at 200 to 1000 nM. The following applies: dose 200-1000 nM. The test is classed as functional, cell-based.
The test system of test [11] is AML12. The experiment in a line: Protection against RSL3-induced ferroptosis in mouse AML12 cells assessed as attenuation of Fe2+ level by fluorescence imaging analysis. The test is classed as functional, cell-based.
The test system of test [12] is Mus musculus. The experiment in a line: Inhibition of CCl4-induced ferroptosis in acute liver injury C57BL/6 mouse model assessed as downregulation of FTL level at 10 to 30 mg/kg, ip pretreated with compound for 3 hrs followed by CCl4 induction and measured after 12 to 24 hrs by Western blot analysis. It is filed as functional, organism-based. Particulars: dose 10-30 mg/kg, time 15-27 hrs. A general note: A western blot detects proteins with antibodies after separation by electrophoresis.

The subject of test [13] is AML12. In words: Protection against CCl4-induced ferroptosis in mouse AML12 cells assessed as reduction in MDA content at 200 to 1000 nM measured for 36 hrs. It is filed as functional, cell-based. Particulars: dose 200-1000 nM.
Test [14] has as its target T1, von Hippel-Lindau disease tumor suppressor/Nuclear receptor coactivator 4 (Homo sapiens, UniProt P40337+Q13772). In words: PROTAC activity at NCOA4/VHL in human HeLa cells assessed as induction of NCOA4 degradation at 50 nM measured 36 to 48 hrs by Western blot analysis. It is filed as cell-based. Particulars: time 36-48 hrs.
Target sequence in this assay (P40337 whole entry, looked up): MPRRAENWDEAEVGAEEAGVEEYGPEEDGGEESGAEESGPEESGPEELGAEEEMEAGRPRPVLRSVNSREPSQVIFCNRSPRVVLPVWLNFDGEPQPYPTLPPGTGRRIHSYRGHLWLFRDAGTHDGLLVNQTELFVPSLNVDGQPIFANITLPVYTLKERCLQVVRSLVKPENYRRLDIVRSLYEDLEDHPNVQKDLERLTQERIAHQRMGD
Target sequence in this assay (Q13772 whole entry, looked up): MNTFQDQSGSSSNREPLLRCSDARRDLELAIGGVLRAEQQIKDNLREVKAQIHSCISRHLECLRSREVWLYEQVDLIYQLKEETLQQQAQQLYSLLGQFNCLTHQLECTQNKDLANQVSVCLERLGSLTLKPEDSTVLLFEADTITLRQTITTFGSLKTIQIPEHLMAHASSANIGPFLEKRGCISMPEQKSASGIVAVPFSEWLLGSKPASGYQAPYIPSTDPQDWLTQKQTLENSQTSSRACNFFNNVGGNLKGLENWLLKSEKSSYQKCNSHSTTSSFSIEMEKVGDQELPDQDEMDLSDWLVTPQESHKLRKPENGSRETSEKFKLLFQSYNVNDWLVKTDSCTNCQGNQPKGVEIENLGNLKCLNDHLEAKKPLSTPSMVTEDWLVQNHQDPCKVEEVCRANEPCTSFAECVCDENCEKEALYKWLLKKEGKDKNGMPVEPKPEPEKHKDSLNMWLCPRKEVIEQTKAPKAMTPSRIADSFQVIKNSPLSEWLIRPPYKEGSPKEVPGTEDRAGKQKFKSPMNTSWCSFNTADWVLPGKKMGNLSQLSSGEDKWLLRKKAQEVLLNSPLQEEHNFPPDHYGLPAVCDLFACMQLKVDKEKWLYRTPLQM
For test [15], the system named is Mus musculus. The experiment in a line: Inhibition of CCl4-induced ferroptosis in acute liver injury C57BL/6 mouse model assessed as reduction in inflammation at 10 to 30 mg/kg, ip pretreated with compound for 3 hrs followed by CCl4 induction and measured after 12 to 24 hrs by H and E staining based analysis. The test is classed as functional, organism-based. The following applies: dose 10-30 mg/kg, time 15-27 hrs.

The target of test [16] is T1, von Hippel-Lindau disease tumor suppressor/Nuclear receptor coactivator 4. The experiment in a line: PROTAC activity at NCOA4/VHL in human HeLa cells assessed as induction of NCOA4 degradation measured for 24 hrs by Western blot analysis. It is filed as cell-based.
Target sequence in this assay (P40337 whole entry): as the sequence (P40337 whole entry, looked up) above
Target sequence in this assay (Q13772 whole entry): as the sequence (Q13772 whole entry, looked up) above
Test [17] has as its system AML12. The experiment in a line: Protection against CCl4-induced ferroptosis in mouse AML12 cells assessed as […] at 200 nM measured for 48 hrs. It is filed as functional, cell-based.
Test [18] relates to AML12. In words: Protection against FINO2-induced ferroptosis in mouse AML12 cells assessed as increase in cell viability at 200 nM measured for 48 hrs by cell counting-lite 2.0 analysis. It is filed as functional, cell-based.
Test [19] relates to AML12. The experiment in a line: Protection against CCl4-induced ferroptosis in mouse AML12 cells assessed as reduction in ptgs2 mRNA level at 200 to 1000 nM measured for 36 hrs by qRT-PCR analysis. It is filed as functional, cell-based. Particulars: dose 200-1000 nM.
The subject of test [20] is Mus musculus. In words: Inhibition of CCl4-induced ferroptosis in acute liver injury C57BL/6 mouse model assessed as inhibition of AST level at 10 to 30 mg/kg, ip pretreated with compound for 3 hrs followed by CCl4 induction and measured after 12 to 24 hrs. Particulars: dose 10-30 mg/kg, time 15-27 hrs. It is filed as functional, organism-based.
In test [21] the test system is Mus musculus. In words: Inhibition of CCl4-induced ferroptosis in acute liver injury C57BL/6 mouse model assessed as reduction in ptgs2 mRNA level in liver at 10 to 30 mg/kg, ip pretreated with compound for 3 hrs followed by CCl4 induction and measured after 12 to 24 hrs. The test is classed as functional, organism-based. The following applies: dose 10-30 mg/kg, time 15-27 hrs.

The subject of test [22] is AML12. In words: Downregulation of Free Fe2+ level in mouse AML12 cells by FerroOrange dye based laser scanning confocal microscopic analysis. The test is classed as functional, cell-based.
The test system of test [23] is AML12. In words: Protection against RSL3-induced ferroptosis in mouse AML12 cells assessed as reduction in lipid peroxidation level at 200 nM measured for 48 hrs. The test is classed as functional, cell-based.

The text below walks through data of ChEMBL document CHEMBL5550205, “Discovery of a NCOA4 Degrader for Labile Iron-Dependent Ferroptosis Inhibition” (J Med Chem, 2024).

SMILES strings stand for the structures. Calls of active or inactive are those of the source. The rule behind the calls is not given here.

For orientation: EC50 means the concentration that produces a half-maximal response. As a reminder, the DC50 is the midpoint of the concentration-degradation curve. Turning to `Cc1ncsc1-c1ccc(CNC(=O)[C@@H]2C[C@@H](O)CN2C(=O)[C@H](NC(=O)CCCC(=O)NCCOCCOCCOCCOc2ccc3c(c2)CCN(c2cccc(-c4nc5ccc(N6CCN(C)CC6)cc5[nH]4)c2)C3)C(C)(C)C)cc1`, the inhibition result with Mus musculus [1], in the test with Mus musculus [9], with Mus musculus [12], in the test on Mus musculus [15], with Mus musculus [20] and in the test on Mus musculus [21] was “Active” throughout. Further, the outcome in the test with AML12 [2], in the test with AML12 [3], in the test with AML12 [5], with AML12 [6], in the test with AML12 [8] and in the test on AML12 [10] was Active. Moreover, the outcome (in the test with AML12 [11]; with AML12 [13]; in test [14]; in the test with AML12 [17]; in the test with AML12 [18]; in the test on AML12 [19]) was Active. Besides, the result in the test on AML12 [22] and with AML12 [23] was Active. The Activity entry in the test with AML12 [4] was “Dose-Dependent Effect”. Moreover, in the test with AML12 [7], the EC50 was 9 nM. Moreover, the half-maximal degradation concentration (DC50) in [16] is 3 nM.
